Measured values: PubChem BioAssay (NCI)
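Abbreviation: GI50, concentration required for 50% inhibition of growth. TGI: concentration producing complete growth inhibition.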

Key:
Test in all cases: inhibition of tumour cell growth, NCI panel, 384-well format
MALME-3M melanoma = test system: MALME-3M melanoma
DU-145 prostate = test system: DU-145 prostate
SR leukemia = test system: SR leukemia
UACC-62 melanoma = test system: UACC-62 melanoma
HS 578T breast = test system: HS 578T breast
MDA-MB-435 melanoma = test system: MDA-MB-435 melanoma
K-562 leukemia = test system: K-562 leukemia
HCT-15 colon = test system: HCT-15 colon
NCI-H23 lung = test system: NCI-H23 lung
SF-539 CNS = test system: SF-539 CNS
CCRF-CEM leukemia = test system: CCRF-CEM leukemia
SK-MEL-5 melanoma = test system: SK-MEL-5 melanoma
SNB-19 CNS = test system: SNB-19 CNS
SK-MEL-28 melanoma = test system: SK-MEL-28 melanoma
OVCAR-4 ovarian = test system: OVCAR-4 ovarian
MCF7 breast = test system: MCF7 breast
SK-OV-3 ovarian = test system: SK-OV-3 ovarian
A549 NSCLC = test system: A549 NSCLC
SF-295 CNS = test system: SF-295 CNS
KM12 colon = test system: KM12 colon
MOLT-4 leukemia = test system: MOLT-4 leukemia
CAKI-1 renal = test system: CAKI-1 renal
HCC-2998 colon = test system: HCC-2998 colon
HOP-92 NSCLC = test system: HOP-92 NSCLC
HL-60(TB) leukemia = test system: HL-60(TB) leukemia
COLO 205 colon = test system: COLO 205 colon
RPMI-8226 leukemia = test system: RPMI-8226 leukemia
ACHN renal = test system: ACHN renal
786-0 renal = test system: 786-0 renal
PC-3 prostate = test system: PC-3 prostate
EKVX NSCLC = test system: EKVX NSCLC
HCT-116 colon = test system: HCT-116 colon
UO-31 renal = test system: UO-31 renal
BT-549 breast = test system: BT-549 breast
NCI/ADR-RES ovarian = test system: NCI/ADR-RES ovarian
IGROV1 ovarian = test system: IGROV1 ovarian
LOX IMVI melanoma = test system: LOX IMVI melanoma
SNB-75 CNS = test system: SNB-75 CNS
TK-10 renal = test system: TK-10 renal
MDA-MB-231 breast = test system: MDA-MB-231 breast
SK-MEL-2 melanoma = test system: SK-MEL-2 melanoma
SF-268 CNS = test system: SF-268 CNS
A498 renal = test system: A498 renal
NCI-H322M lung = test system: NCI-H322M lung
OVCAR-5 ovarian = test system: OVCAR-5 ovarian
U251 glioblastoma = test system: U251 glioblastoma
NCI-H460 NSCLC = test system: NCI-H460 NSCLC
HT29 colon = test system: HT29 colon
HOP-62 NSCLC = test system: HOP-62 NSCLC
RXF 393 renal = test system: RXF 393 renal
OVCAR-3 ovarian = test system: OVCAR-3 ovarian
MDA-MB-468 breast = test system: MDA-MB-468 breast
SN12C renal = test system: SN12C renal
NCI-H226 lung = test system: NCI-H226 lung
NCI-H522 lung = test system: NCI-H522 lung

O=C1NC(=O)[C@@H](c2cn3c4c(cccc24)CCC3)[C@@H]1c1c[nH]c2ccccc12
GI50 (MALME-3M melanoma): 260 nM
TGI (MALME-3M melanoma): 11500 nM
GI50 (DU-145 prostate): 451 nM
TGI (DU-145 prostate): 2990 nM
TGI (SR leukemia): 14.9 nM
GI50 (UACC-62 melanoma): 96.9 nM
TGI (UACC-62 melanoma): 525 nM
GI50 (HS 578T breast): 123 nM
TGI (HS 578T breast): 295 nM
GI50 (MDA-MB-435 melanoma): 24.9 nM
TGI (MDA-MB-435 melanoma): 141 nM
GI50 (K-562 leukemia): 21.5 nM
TGI (K-562 leukemia): 373 nM
GI50 (HCT-15 colon): 40.6 nM
TGI (HCT-15 colon): 4940 nM
GI50 (NCI-H23 lung): 269 nM
TGI (NCI-H23 lung): 6960 nM
GI50 (SF-539 CNS): 244 nM
TGI (SF-539 CNS): 1070 nM
GI50 (CCRF-CEM leukemia): 119 nM
TGI (CCRF-CEM leukemia): 246 nM
GI50 (SK-MEL-5 melanoma): 115 nM
TGI (SK-MEL-5 melanoma): 595 nM
GI50 (SNB-19 CNS): 347 nM
TGI (SNB-19 CNS): 12000 nM
GI50 (SK-MEL-28 melanoma): 311 nM
TGI (SK-MEL-28 melanoma): 16600 nM
GI50 (OVCAR-4 ovarian): 2160 nM
TGI (OVCAR-4 ovarian): 20700 nM
GI50 (MCF7 breast): 141 nM
TGI (MCF7 breast): 11600 nM
GI50 (SK-OV-3 ovarian): 184 nM
TGI (SK-OV-3 ovarian): 3710 nM
GI50 (A549 NSCLC): 413 nM
TGI (A549 NSCLC): 14100 nM
GI50 (SF-295 CNS): 246 nM
TGI (SF-295 CNS): 1230 nM
GI50 (KM12 colon): 28 nM
TGI (KM12 colon): 1990 nM
GI50 (MOLT-4 leukemia): 52 nM
TGI (MOLT-4 leukemia): 199 nM
GI50 (CAKI-1 renal): 71.2 nM
TGI (CAKI-1 renal): 12000 nM
TGI (HCC-2998 colon): 1260 nM
GI50 (HOP-92 NSCLC): 410 nM
TGI (HOP-92 NSCLC): 10700 nM
GI50 (HL-60(TB) leukemia): 124 nM
TGI (HL-60(TB) leukemia): 252 nM
GI50 (COLO 205 colon): 281 nM
TGI (COLO 205 colon): 7770 nM
GI50 (RPMI-8226 leukemia): 154 nM
TGI (RPMI-8226 leukemia): 308 nM
GI50 (ACHN renal): 409 nM
TGI (ACHN renal): 14500 nM
GI50 ([…]-0 renal): 332 nM
TGI (786-0 renal): 12400 nM
GI50 (PC-3 prostate): 145 nM
TGI (PC-3 prostate): 8340 nM
GI50 (EKVX NSCLC): 340 nM
TGI (EKVX NSCLC): 13900 nM
GI50 (HCT-116 colon): 285 nM
TGI (HCT-116 colon): 3630 nM
GI50 (UO-31 renal): 365 nM
TGI (UO-31 renal): 16700 nM
GI50 (BT-549 breast): 154 nM
TGI (BT-549 breast): 718 nM
GI50 (NCI/ADR-RES ovarian): 203 nM
TGI (NCI/ADR-RES ovarian): 787 nM
GI50 (IGROV1 ovarian): 403 nM
TGI (IGROV1 ovarian): 12400 nM
GI50 (LOX IMVI melanoma): 453 nM
TGI (LOX IMVI melanoma): 2100 nM
GI50 (SNB-75 CNS): 246 nM
TGI (SNB-75 CNS): 10100 nM
GI50 (TK-10 renal): 420 nM
TGI (TK-10 renal): 15700 nM
GI50 (MDA-MB-231 breast): 398 nM
TGI (MDA-MB-231 breast): 15400 nM
GI50 (SK-MEL-2 melanoma): 256 nM
TGI (SK-MEL-2 melanoma): 497 nM
GI50 (SF-268 CNS): 281 nM
TGI (SF-268 CNS): 2700 nM
GI50 (A498 renal): 307 nM
TGI (A498 renal): 8830 nM
GI50 (NCI-H322M lung): 558 nM
TGI (NCI-H322M lung): 13800 nM
GI50 (OVCAR-5 ovarian): 1620 nM
TGI (OVCAR-5 ovarian): 17300 nM
GI50 (U251 glioblastoma): 280 nM
TGI (U251 glioblastoma): 1790 nM
GI50 (NCI-H460 NSCLC): 155 nM
TGI (NCI-H460 NSCLC): 630 nM
GI50 (HT29 colon): 180 nM
TGI (HT29 colon): 494 nM
GI50 (HOP-62 NSCLC): 252 nM
TGI (HOP-62 NSCLC): 11800 nM
GI50 (RXF 393 renal): 26.8 nM
TGI (RXF 393 renal): 380 nM
GI50 (OVCAR-3 ovarian): 21.9 nM
TGI (OVCAR-3 ovarian): 149 nM
GI50 (MDA-MB-468 breast): 53.3 nM
TGI (MDA-MB-468 breast): 204 nM
GI50 (SN12C renal): 401 nM
TGI (SN12C renal): 12700 nM
GI50 (NCI-H226 lung): 400 nM
TGI (NCI-H226 lung): 7390 nM
GI50 (NCI-H522 lung): 13.2 nM
TGI (NCI-H522 lung): 93.7 nM
